Test results reported in US20240315986A1, “PHARMACEUTICAL COMPOSITION FOR TREATMENT OF MULTIPLE SYSTEM ATROPHY” (THE UNIVERSITY OF TOKYO, priority 2021, published 2024).
Read-outs that look alike come from different tables or passages of the source.

How the values were obtained:
[1] = cited from earlier work
[2] = Phase 1 clinical trial: plasma concentration of drug in repeated oral administration for 14 days; assay type: in vivo, human; conditions: for Maximum plasma concentration of the MSA-01: 6 hours after repeated oral administration for 14 days (318 hour)
Procedure: (Measurement of Plasma Concentration of Drug in Repeated Oral Administration for 14 Days)
The MSA-01 was subjected to the oral administration to healthy subjects at doses of 900 mg, 1,200 mg, and 1,500 mg repeatedly for 14 days. […] Maximum plasma concentrations of the MSA-01 detected were 10.24, 9.38, and 15.22 μg/mL in 900 mg, 1,200 mg, and 1,500 mg groups, respectively, in measurement after 6 hours from the repeated oral administration for 14 days (a value at 318 hour in FIG. 1). Published baselines of the plasma concentration of the ubiquinol are 0.87 and […] (% Reduced CoQ10: 98.9 and 85%) (Langsjoen, et al. Comparison study of plasma coenzyme Q10 levels in healthy subjects supplemented with ubiquinol versus ubiquinone. Clin Pharmacol Drug Dev. 2014; 3(1):13-17, Onur et al. Determination of the coenzyme Q10 status in a large Caucasian study population. Biofactors 2015; 41(4):211-21), and it is estimated that MSA-01 in the plasma increased about 20-fold from the baselines in the 1500 mg group in the test.

familial MSA patient = conditions: cited from earlier work
[3] = system: multiple system atrophy patients; assay: Phase 2 clinical trial of MSA-01 in multiple system atrophy patients; assay type: in vivo, human
Procedure: For a group of 21 patients with COQ2 mutation and a group of 108 patients without COQ2 mutation, 61 patients were administered with the MSA-01 and 68 patients were administered with the placebo for each group. Among 129 patients in total in the patient groups, 99 patients had the MSA-C and 30 patients had the MSA-P. The 129 patients who were confirmed to be eligible during 4-week observation period were randomly assigned to be administered with the MSA-01 or the placebo once per day after breakfast (doses of the MSA-01 or the placebo ascend every 2 weeks to 300, 600, 900, 1,200, and 1,500 mg/day, FIG. 2), and evaluation items according to main evaluation items were measured at Weeks 12, 24, 36, and 48.
Changes (LS means) of UMSARS part 2 scores at Weeks 12, 24, 36, and 48 from the baseline (unified multiple-system atrophy rating scale part 2; Wenning G K, Tison F, Seppi K, et al. Development and validation of the Unified Multiple System Atrophy Rating Scale (UMSARS). Mov Disord [Internet] 2004; 19(12):1391-402) were evaluated. […] Results are shown in FIG. 3A (at Weeks 12, 24, 36, and 48) and FIG. 4 (at Week 48).
Changes (LS mean) of a UMSARS part 1 score (unified multiple-system atrophy rating scale part 1; Wenning G K, Tison F, Seppi K, et al. Development and validation of the Unified Multiple System Atrophy Rating Scale (UMSARS). Mov Disord [Internet] 2004; 19(12):1391-402), the Barthel index (Barthel index: Mahoney F I, Barthel D W. Functional evaluation: The Barthel index. Md State Med J [Internet] 1965; 14:61-5. Available from:http://www.ncbi.nlm.nih.gov/pubmed/14258950) (FIG. 3B), a SARA score (Schmitz-Huebsch T, du Montcel S T, Baliko L, Berciano J, Boesch S, Depondt C, Giunti P, Globas C, Infante J, Kang J S, Kremer B, Mariotti C, Melegh B, Pandolfo M, Rakowicz M, Ribai P, Rola R, Schoels L, Szymanski S, van de Warrenburg B P, Duerr A, Klockgether T, Fancellu R. Scale for the assessment and rating of ataxia:development of a new clinical scale. Neurology. 2006 Jun. 13; 66(11):1717-20. doi: 10.1212/01.wnl.0000219042.60538.92), and a 10-meter walking time (second) at Week 48 from baselines was evaluated (FIG. 4).

[4] = oral administration to a human; cited from earlier work
[5] = intravenous administration to a rat; cited from earlier work
[6] = first cited value (Langsjoen et al. 2014)
[7] = second cited value (Onur et al. 2015)
[8] = Week 48, compared to the placebo group

Maximum plasma concentration of the MSA-01 ([2]; 900 mg group) | Maximum plasma concentration of the MSA-01 ([2]; 1,200 mg group) | increase of MSA-01 in the plasma from the baselines ([2]; 1500 mg group, versus published baselines) | Maximum plasma concentration of the MSA-01 ([2]; 1,500 mg group) | plasma concentration of the MSA-01 until 24 hours after the administration ([2]; healthy subjects, oral 900, 1,200 and 1,500 mg, quantification limit printed 1 g/mL) | time of repeated administration to reach steady state of plasma concentration ([2]; healthy subjects, repeated oral administration 900-1,500 mg) | Compound | % Reduced CoQ10 [1, 6] | Published baseline of the plasma concentration of the ubiquinol [1, 6] | % Reduced CoQ10 [1, 7] | Published baseline of the plasma concentration of the ubiquinol [1, 7] | clinical evaluation scale (familial MSA patient; 600 mg 2 weeks, 840 mg 2 weeks, 1,200 mg 2 weeks, once per day from a gastrostomy tube) | brain oxygen consumption rate (familial MSA patient; one familial MSA patient, ubiquinol above conventional dose) | Change (LS mean) of 10-meter walking time from baseline [3, 8] | Change (LS mean) of SARA score from baseline [3, 8] | Change (LS mean) of the Barthel index from baseline [3, 8] | difference of LS mean change of UMSARS part 2 score, MSA-01 group versus placebo group ([3]; Week 48, 95% confidence interval −3.24 to −0.24, P=0.023) | Change (LS mean) of UMSARS part 2 score from the baseline ([3]; Week 48, MSA-01 ascending to 1,500 mg/day oral once per day, placebo 7.14) | ubiquinol (reduced) present in plasma after ubiquinone administration [4] | ubiquinol (reduced) present in plasma after ubiquinone administration [5]
10.24 µg/mL | 9.38 µg/mL | about 20 fold | 15.22 µg/mL | extremely low | about 7 days | COC1=C(OC)C(O)C(C/C=C(\C)CC/C=C(\C)CC/C=C(\C)CC/C=C(\C)CC/C=C(\C)CC/C=C(\C)CC/C=C(\C)CC/C=C(\C)CC/C=C(\C)CCC=C(C)C)=C(C)C1O (stereo not shown) [MSA-01, 2-[(2E,6E,10E,14E,18E,22E,26E,30E,34E)-3,7,11,15,19,23,27,31,35,39-decamethyltetraconta-2,6,10,14,18,22,26,30,34,38-decaenyl]-5,6-dimethoxy-3-methylcyclohexa-2,5-diene-1,4-diol] | 98.9% | 0.87 µg/mL | 85% | 0.66 µg/mL | no statistically significant changes | improved brain oxygen consumption rate | effects were shown | effects were shown | effects were shown | −1.74 | 5.40 |  | 
 |  |  |  |  |  | COC1=C(OC)C(=O)C(C/C=C(\C)CC/C=C(\C)CC/C=C(\C)CC/C=C(\C)CC/C=C(\C)CC/C=C(\C)CC/C=C(\C)CC/C=C(\C)CC/C=C(\C)CCC=C(C)C)=C(C)C1=O [ubiquinone] |  |  |  |  |  |  |  |  |  |  |  | ≥ 95% | ≥ 95%
